This assay deals with BDF1 mice, P388 leukemia ip, median survival T/C. Put plainly: NCI In Vivo Anticancer Drug Screen. Data for tumor model P388 Leukemia (intraperitoneal) in B6D2F1 (BDF1) mice. The conditions noted are these: endpoint: median survival time, higher = longer survival. In short, it runs like this: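 Vehicle-dosed animals serve as the reference; survival of compound-dosed, tumour-implanted mice is divided by it.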

Where [1] appears, read: dose: 50.0 mg/kg/injection, schedule: Q01DX009 (ip), vehicle: saline with Tween-80.
[2] abbreviates: dose: 100.0 mg/kg/injection, schedule: Q01DX009 (ip), vehicle: saline with Tween-80.
Where [3] appears, read: dose: 200.0 mg/kg/injection, schedule: Q01DX009 (ip), vehicle: saline with Tween-80.
The mark [4] stands for this setting: dose: 400.0 mg/kg/injection, schedule: Q01DX009 (ip), vehicle: saline with Tween-80.
[5] abbreviates: dose: 100.0 mg/kg/injection, schedule: Q04DX003 (ip), vehicle: saline with Tween-80.
[6] abbreviates: dose: 200.0 mg/kg/injection, schedule: Q04DX003 (ip), vehicle: saline with Tween-80.
Setting [7] is: dose: 400.0 mg/kg/injection, schedule: Q04DX003 (ip), vehicle: saline with Tween-80.

Where “and” joins values, the source holds several entries; their conditions need not be identical. Equal values may be shown once. Toxic doses and inconclusive results are not listed.

Consider `O=[N+]([O-])c1cc([N+](=O)[O-])c(Br)cc1Cl`, for which the T/C reads like this: (dose: 5.0 mg/kg/injection, schedule: Q01DX009 (ip), vehicle: Klucel (hydroxypropylcellulose) (HPC)) 101 % of control; (dose: 10.0 mg/kg/injection, schedule: Q01DX009 (ip), vehicle: Klucel (hydroxypropylcellulose) (HPC)) 110 % of control; (dose: 20.0 mg/kg/injection, schedule: Q01DX009 (ip), vehicle: Klucel (hydroxypropylcellulose) (HPC)) 112 % of control.
For the compound `CCOC(=O)C(C#N)C(C(C)=O)C(=O)OCC` (centres undefined), the T/C reads like this: (dose: 25.0 mg/kg/injection, schedule: Q01DX009 (ip), vehicle: saline with Tween-80) 118 % of control; (dose: 25.0 mg/kg/injection, schedule: Q04DX003 (ip), vehicle: saline sonified) 95 % of control; under setting [1], 90 % of control; (dose: 50.0 mg/kg/injection, schedule: Q04DX003 (ip), vehicle: saline sonified) 100 % of control; (dose: 100.0 mg/kg/injection, schedule: Q04DX003 (ip), vehicle: saline sonified) 104 % of control.
`CCOC(=O)c1c(N)sc2c1CCCCC2`: the T/C runs as follows: under setting [2], 100 % of control; under setting [3], 95 % of control; under setting [4], 110 % of control.
Regarding `Cc1ccc2c(ccc(/C=C/c3ccc(O)c4ncccc34)[n+]2C)c1`, the T/C (dose: 75.0 mg/kg/injection, schedule: Q01DX009 (ip), vehicle: Klucel (hydroxypropylcellulose) (HPC)) is 104 % of control.
Turning to `c1ccc(C2OC2(c2ccccc2)c2ccccc2)cc1` (centres undefined), the T/C by setting is: under setting [5], 95 % of control; under setting [6], 104 % of control; under setting [7], 95 % of control.
Take `COC(=O)c1cc(=O)n(-c2ccccc2F)c(SC)n1`: the T/C (dose: 100.0 mg/kg/injection, schedule: Q04DX003 (ip), vehicle: Klucel (hydroxypropylcellulose) (HPC)) was 116 % of control.
As for `O=C(O)c1ccc(-c2ccccc2)cc1`, the T/C under setting [1] was 100 % of control; the T/C under setting [2] was 104 % of control; the T/C under setting [5] was 104 % of control; the T/C under setting [3] was 95 % of control; the T/C under setting [6] was 104 % of control.
In the case of `CC(=O)OC1C(CO)OC2C1Oc1nc(=N)c(F)cn12` (centres undefined), the T/C is, setting by setting: (dose: 1.56 mg/kg/injection, schedule: Q01DX009 (ip), vehicle: saline) 176 % of control; (dose: 3.13 mg/kg/injection, schedule: Q01DX009 (ip), vehicle: saline) 92 % of control and 102 % of control.
With `CCN(CC)CCCC(C)Nc1ccnc2cc(Cl)ccc12` (centres undefined), the T/C is, setting by setting: (dose: 6.2 mg/kg/injection, schedule: Q01DX010 (ip), vehicle: saline) 100 % of control; (dose: 12.5 mg/kg/injection, schedule: Q01DX009 (ip), vehicle: saline) 113 % of control; (dose: 12.5 mg/kg/injection, schedule: Q01DX010 (ip), vehicle: saline) 90 % of control; (dose: 25.0 mg/kg/injection, schedule: Q01DX009 (ip), vehicle: saline) 109 % of control; (dose: 25.0 mg/kg/injection, schedule: Q01DX010 (ip), vehicle: saline) 95 % of control; (dose: 50.0 mg/kg/injection, schedule: Q01DX009 (ip), vehicle: saline) 109 % of control. In addition, the T/C (dose: 50.0 mg/kg/injection, schedule: Q01DX010 (ip), vehicle: saline) was 100 % of control and the T/C (dose: 75.0 mg/kg/injection, schedule: Q01DX009 (ip), vehicle: saline) was 104 % of control.
For the compound `O=C(CNC(=O)c1ccc(C(=O)NCC(=O)Nc2ccc(C3=NCCCN3)cc2)cc1)Nc1ccc(C2=NCCCN2)cc1`, the T/C is 100 % of control (dose: 11.0 mg/kg/injection, schedule: Q04DX003 (ip), vehicle: saline); 113 % of control (dose: 16.0 mg/kg/injection, schedule: Q04DX003 (ip), vehicle: saline); 96 % of control (dose: 25.0 mg/kg/injection, schedule: Q01DX001 (ip), vehicle: Klucel (hydroxypropylcellulose) (HPC)); 103 % of control (dose: 50.0 mg/kg/injection, schedule: Q01DX001 (ip), vehicle: Klucel (hydroxypropylcellulose) (HPC)); 168 % of control (dose: 66.0 mg/kg/injection, schedule: Q04DX003 (ip), vehicle: saline); 107 % of control (dose: 75.0 mg/kg/injection, schedule: Q01DX001 (ip), vehicle: Klucel (hydroxypropylcellulose) (HPC)). The T/C is 115 % of control (dose: 100.0 mg/kg/injection, schedule: Q01DX001 (ip), vehicle: Klucel (hydroxypropylcellulose) (HPC)); 181 % of control (2×) and 195 % of control (dose: 100.0 mg/kg/injection, schedule: Q04DX003 (ip), vehicle: saline); 272 % of control and 186 % of control (dose: 150.0 mg/kg/injection, schedule: Q04DX003 (ip), vehicle: saline); 168 % of control (dose: 400.0 mg/kg/injection, schedule: Q01DX001 (ip), vehicle: Klucel (hydroxypropylcellulose) (HPC)).
With `Cn1ncc(=O)c(Cl)c1S`, the T/C (dose: 50.0 mg/kg/injection, schedule: Q01DX005 (ip), vehicle: saline with Tween-80) is 97 % of control; the T/C (dose: 100.0 mg/kg/injection, schedule: Q01DX005 (ip), vehicle: saline with Tween-80) is 93 % of control; the T/C (dose: 200.0 mg/kg/injection, schedule: Q01DX005 (ip), vehicle: saline with Tween-80) is 99 % of control.
As to `O=NN(CCCl)C(=O)Nc1cc(NC(=O)N(CCCl)N=O)cc(C(=O)O)c1`, the T/C is 116 % of control (dose: 0.03 mg/kg/injection, schedule: Q04DX003 (ip), vehicle: saline with Tween-80); 120 % of control and 122 % of control (dose: 0.06 mg/kg/injection, schedule: Q04DX003 (ip), vehicle: saline with Tween-80); 150 % of control (dose: 0.5 mg/kg/injection, schedule: Q04DX003 (ip), vehicle: saline with Tween-80); 163 % of control (dose: 0.6 mg/kg/injection, schedule: Q04DX003 (ip), vehicle: saline with Tween-80); 170 % of control (dose: 1.0 mg/kg/injection, schedule: Q04DX003 (ip), vehicle: saline with Tween-80); 195 % of control (dose: 1.8 mg/kg/injection, schedule: Q04DX003 (ip), vehicle: saline with Tween-80). The T/C is 200 % of control (dose: 2.0 mg/kg/injection, schedule: Q04DX003 (ip), vehicle: saline with Tween-80); 215 % of control (dose: 2.3 mg/kg/injection, schedule: Q04DX003 (ip), vehicle: saline with Tween-80); 195 % of control (dose: 2.5 mg/kg/injection, schedule: Q04DX003 (ip), vehicle: saline with Tween-80); 265 % of control (dose: 3.5 mg/kg/injection, schedule: Q04DX003 (ip), vehicle: saline with Tween-80); 186 % of control (dose: 3.7 mg/kg/injection, schedule: Q04DX003 (ip), vehicle: saline with Tween-80); 235 % of control (dose: 5.5 mg/kg/injection, schedule: Q04DX003 (ip), vehicle: saline with Tween-80). Further, the T/C runs as follows: (dose: 6.0 mg/kg/injection, schedule: Q04DX003 (ip), vehicle: saline with Tween-80) 222 % of control; (dose: 8.5 mg/kg/injection, schedule: Q04DX003 (ip), vehicle: saline with Tween-80) 275 % of control; (dose: 13.0 mg/kg/injection, schedule: Q04DX003 (ip), vehicle: saline with Tween-80) 250 % of control and 300 % of control; (dose: 18.0 mg/kg/injection, schedule: Q04DX003 (ip), vehicle: saline with Tween-80) 272 % of control; (dose: 20.0 mg/kg/injection, schedule: Q04DX003 (ip), vehicle: saline with Tween-80) 272 % of control and 300 % of control and 218 % of control; (dose: 30.0 mg/kg/injection, schedule: Q04DX003 (ip), vehicle: saline with Tween-80) 235 % of control and 272 % of control. Further, under “dose: 45.0 mg/kg/injection, schedule: Q04DX003 (ip), vehicle: saline with Tween-80”, the T/C is 95 % of control.
For `CC1(C)CC(=O)C=C(OCCc2ccccc2)C1`, the T/C by setting is: under setting [2], 100 % of control; under setting [3], 109 % of control; under setting [4], 118 % of control.
For the compound `COc1cc(C)c(NC(=O)Oc2ccccc2)c(C)c1`, the T/C reads like this: under setting [5], 104 % of control; under setting [6], 104 % of control; under setting [7], 104 % of control.

The values are drawn from PubChem BioAssay AID328 (DTP/NCI, 2004).
